Results taken from patent US4999042A, “Phenyl oximino-acetate fungicides” (Imperial Chemical Industries PLC, priority 1986, dated 1991).

Columns and labels:
Assay type in all cases: in vivo
[1] = test system: Pyricularia oryzae (rice); conditions: 100 ppm foliar spray plus root drench approx. 40 ppm a.i./dry soil, 1-2 days before inoculation
[2] = test system: Puccinia recondita (wheat); experiment: Foliar fungal disease control, Puccinia recondita on wheat; conditions: 100 ppm foliar spray plus root drench approx. 40 ppm a.i./dry soil, 1-2 days before inoculation
Maize (MZ) = experiment: Plant growth regulating whole plant screen, maize; conditions: 4000 ppm (4 kg/ha) spray; for A = Apical damage / I = Interligular or internodal length reduction / R = Retardation: visual score after 2-6 weeks
Description: (§1) This Example illustrates the plant growth regulating properties of compounds 1, 2, 5 and 12-15 of Table I when tested on a whole plant screen against two species of plant. The plant species are identified in Table IV with the leaf stage at which they were sprayed.
(§2) A formulation of each chemical was applied at 4000 ppm (4 kg/ha in a 1000 1/ha field volume) using a tracksprayer and a SS8004E (Teejet) nozzle.
(§3) After spraying, the plants were grown in a glasshouse with 25° C. day/22° C. night temperatures. Supplementary lighting was supplied when necessary to provide an average photoperiod of 16 hours (14 hours minimum).
(§4) After 2-6 weeks in the glasshouse, depending on species and time of year, the plants were visually assessed for morphological characteristics against a control plant sprayed with a blank formulation.

[3] = test system: Venturia inaequalis (apple); experiment: Foliar fungal disease control, Venturia inaequalis on apple; conditions: 100 ppm foliar spray plus root drench approx. 40 ppm a.i./dry soil, 1-2 days before inoculation
[4] = test system: Plasmopara viticola (vine); experiment: Foliar fungal disease control, Plasmopara viticola on vine; conditions: 100 ppm foliar spray plus root drench approx. 40 ppm a.i./dry soil, 1-2 days before inoculation
Apple (AP) = experiment: Plant growth regulating whole plant screen, apple; conditions: 4000 ppm (4 kg/ha) spray, visual score after 2-6 weeks
Description: as §1, §2, §3, §4

[5] = test system: Cercospora arachidicola (peanut); experiment: Foliar fungal disease control, Cercospora arachidicola on peanut; conditions: 100 ppm foliar spray plus root drench approx. 40 ppm a.i./dry soil, 1-2 days before inoculation
[6] = test system: Erysiphe graminis hordei (barley); experiment: Foliar fungal disease control, Erysiphe graminis hordei on barley; conditions: 100 ppm foliar spray plus root drench approx. 40 ppm a.i./dry soil, inoculated 24 hours before treatment

| Compound | disease control grading, P[…] (RICE) [1] | disease control grading, PUCCINIA RECONDITA (WHEAT) [2] | A = Apical damage (Maize (MZ)) | I = Interligular or internodal length reduction (Maize (MZ)) | R = Retardation (Maize (MZ)) | disease control grading, VENTURIA INAEQUALIS (APPLE) [3] | disease control grading, PLASMOPARA VITICOLA (VINE) [4] | G = Greening effect (Apple (AP)) | I = Interligular or internodal length reduction (Apple (AP)) | R = Retardation (Apple (AP)) | disease control grading, CERCOSPORA ARACHIDICOLA (PEANUT) [5] | disease control grading, ERYSIPHE GRAMINIS HORDEI (BARLEY) [6] | P = Phytotoxicity (Maize (MZ); after 2-6 weeks) |
| --- | --- | --- | --- | --- | --- | --- | --- | --- | --- | --- | --- | --- | --- |
| CON=C(C(=O)OC)c1ccccc1/C=C/c1ccccc1 (single isomer, unassigned) [Compound 2, methyl O-methyl (2-(E)-styrylphenyl)oximino-acetate] | 0 (60-100% of disease on untreated plants) | 2 (6-25% of disease on untreated plants) | 2 (31-60%) | 2 (31-60%) | 2 (31-60%) | 4 | 4 | 1 (10-30%) | 1 (10-30%) | 2 (31-60%) | 0 (60-100% of disease on untreated plants) | 0 (60-100% of disease on untreated plants) | – |
| CO/N=C(\C(=O)OC)c1ccccc1Oc1ccccc1 [Compound 5, methyl O-methyl(2-phenoxyphenyl)oximino-acetate] | 1 (26-59% of disease on untreated plants) | 0 (60-100% of disease on untreated plants) | 3 (61-100%) | 3 (61-100%) | 3 (61-100%) | 3 (trace - 5% of disease on untreated plants) | 0 (60-100% of disease on untreated plants) | – | – | – | 0 (60-100% of disease on untreated plants) | 3 (trace - 5% of disease on untreated plants) | 1 (less than 10%) |
